Measured values as given in publication PMC11665983, “Inhibition of CFTR-mediated intestinal chloride secretion by nornidulin: Cellular mechanisms and anti-secretory efficacy in human intestinal epithelial cells and human colonoids” (PLOS ONE, 2024).

Target: cystic fibrosis transmembrane conductance regulator (CFTR) (Homo sapiens, UniProt P13569)
Test: CPT-cAMP-stimulated apical chloride current in basolaterally permeabilized T84 monolayers (endogenous CFTR); genistein-stimulated current also inhibited (IC50 […])
Format: cell-based

Chain of cystic fibrosis transmembrane conductance regulator (CFTR) (P13569 whole entry): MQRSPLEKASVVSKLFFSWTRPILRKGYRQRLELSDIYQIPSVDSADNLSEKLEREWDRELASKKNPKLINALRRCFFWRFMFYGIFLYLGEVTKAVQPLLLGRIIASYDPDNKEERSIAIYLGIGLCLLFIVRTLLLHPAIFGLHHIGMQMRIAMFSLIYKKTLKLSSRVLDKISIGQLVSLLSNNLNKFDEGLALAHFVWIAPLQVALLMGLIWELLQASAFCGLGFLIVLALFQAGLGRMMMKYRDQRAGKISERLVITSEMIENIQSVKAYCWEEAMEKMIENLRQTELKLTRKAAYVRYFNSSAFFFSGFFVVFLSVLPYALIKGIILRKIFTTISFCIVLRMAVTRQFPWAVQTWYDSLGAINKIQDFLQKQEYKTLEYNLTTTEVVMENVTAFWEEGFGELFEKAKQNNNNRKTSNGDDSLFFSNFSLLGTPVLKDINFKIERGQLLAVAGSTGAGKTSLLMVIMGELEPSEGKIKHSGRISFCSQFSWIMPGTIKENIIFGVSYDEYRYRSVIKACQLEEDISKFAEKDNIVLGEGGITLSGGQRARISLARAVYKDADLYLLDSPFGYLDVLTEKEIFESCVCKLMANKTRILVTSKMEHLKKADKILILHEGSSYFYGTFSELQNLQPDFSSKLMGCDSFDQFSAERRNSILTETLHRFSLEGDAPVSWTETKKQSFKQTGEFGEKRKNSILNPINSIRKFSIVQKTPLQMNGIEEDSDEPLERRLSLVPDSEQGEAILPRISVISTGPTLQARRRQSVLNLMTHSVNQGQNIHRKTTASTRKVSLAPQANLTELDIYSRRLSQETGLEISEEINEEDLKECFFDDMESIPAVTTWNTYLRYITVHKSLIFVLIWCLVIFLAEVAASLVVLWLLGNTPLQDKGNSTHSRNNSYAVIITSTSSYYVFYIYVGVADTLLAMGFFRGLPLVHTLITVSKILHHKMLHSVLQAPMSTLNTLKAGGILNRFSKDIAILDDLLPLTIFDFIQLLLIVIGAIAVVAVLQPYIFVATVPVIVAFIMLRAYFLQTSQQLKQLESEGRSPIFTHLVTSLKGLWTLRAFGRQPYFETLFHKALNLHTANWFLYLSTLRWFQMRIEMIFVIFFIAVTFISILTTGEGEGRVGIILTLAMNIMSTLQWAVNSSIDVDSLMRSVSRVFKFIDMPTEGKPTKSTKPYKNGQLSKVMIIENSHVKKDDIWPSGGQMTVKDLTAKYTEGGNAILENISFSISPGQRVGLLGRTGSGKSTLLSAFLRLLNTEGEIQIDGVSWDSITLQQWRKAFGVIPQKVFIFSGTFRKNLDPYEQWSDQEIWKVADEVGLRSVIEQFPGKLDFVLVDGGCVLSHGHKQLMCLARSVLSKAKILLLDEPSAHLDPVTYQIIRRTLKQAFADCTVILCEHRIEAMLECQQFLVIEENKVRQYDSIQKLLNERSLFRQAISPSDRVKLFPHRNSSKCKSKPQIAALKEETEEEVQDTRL

C/C=C(\C)c1c(Cl)c(O)c(C)c2c1Oc1c(Cl)c(O)c(Cl)c(C)c1C(=O)O2 [N9, nornidulin]
IC50: 1030 ± 130 nM
